Test results published in patent US10743544B2, “Method for inactivating Cronobacter sakazakii” (priority 2015, dated 2020).
Entries after “also recorded” stand apart in the source; their conditions may differ.

How the values were obtained:
[1] = system: Cronobacter sakazakii strains ES45, ES46, ES37 and ES39; assay: Tolerance of C. sakazakii to acidified natural extracts in PIF, pH 3.55 (FIG. 2); type: cell-based; settings: 0.5% in PIF, pH 3.55 versus unadjusted pH
Protocol: A commercial PIF (Wondersun, Harbin, Hei Longjiang Province, China) was purchased and reconstituted according to the manufacturer's instruction. Briefly, 15 g of the PIF was reconstituted in 100 mL of sterile distilled water. 5 mg/mL TP was added to the rehydrated PIF and shaken gently to make sure it was fully dissolved. As controls, malic acid, citric acid and VC were dissolved in PIF in the same way as that of TP. A pH meter was used to determine the pH of all solutions. The initial pH of rehydrated PIF was 6.82 and the value of pH dropped to pH 3.62, pH 3.55, pH 4.55 and pH 6.46 after addition of 5 mg/mL malic acid, citric acid, VC and TP, respectively. The final concentration of the natural extract solutions was 0.5% (w/v) and PIF solutions were packed into different test tubes, each tube with 9 mL solution. PIF solution without adding additional substance was used as the blank control group.
In order to eliminate the effect of pH on the growth of Cronobacter sakazakii, it is necessary to adjust the pH for each treatment group to be the same. The pH of all the treatment groups was adjusted to pH 3.55 with 4 M HCl and 4M NaOH, which was the minimum pH of all the treatment solutions. The PIF acidified with HCl was used as the control. 1 mL of 8.0 Log CFU/mL cell suspensions of the four C. sakazakii strains were separately added to 9 mL acidified PIF with different natural extracts. […]

[2] = system: Cronobacter sakazakii strains ES45, ES46, ES37, and ES39; assay: Tolerance of C. sakazakii to different natural extracts in PIF, plate count (FIG. 1); type: cell-based; settings: 0.5% in PIF, pH not adjusted, four strains; for growth trend of C. sakazakii (plate count): 37° C., up to 7 hours
Protocol: (§1) A commercial PIF (Wondersun, Harbin, Hei Longjiang Province, China) was purchased and reconstituted according to the manufacturer's instruction. Briefly, 15 g of the PIF was reconstituted in 100 mL of sterile distilled water. 5 mg/mL TP, malic acid, citric acid or ascorbic acid (VC) was added to the rehydrated PIF, and shaken gently to make sure that it was fully dissolved. A pH meter was used to determine the pH of all the solutions. The initial pH of rehydrated PIF was 6.82 and it dropped to pH 3.62, pH 3.55, pH 4.55 and pH 6.46 after added 5 mg/mL malic acid, citric acid, VC and TP, respectively. The final concentration of the natural extract solutions was 0.5% and the milk powder solutions were packed into different test tubes with 9 ml solution in each tube. Milk powder solution without any natural extract product was used as the control group.
1 mL of 8.0 Log CFU/mL cell suspensions of four C. sakazakii strains were separately added to 9 mL rehydrated PIF with different natural extracts prepared above to obtain final concentrations of approximately 7.0 Log CFU/mL. The cell suspensions with different natural extracts were incubated at 37° C. for 1, 3, 5 and 7 hours, and mixed to make sure that the solutions were homogeneous. After serial dilution with NS, 0.1 mL of appropriately diluted cultures were spread-plated on TSA plates and incubated upside down at 37° C. overnight to observe the growth of Cronobacter sakazakii.
The tolerance of four different ST types of Cronobacter sakazakii to different natural extracts was studied by serial dilution plate count method. The cell suspensions were separately added to PIF containing 0.5% tea polyphenols, 0.5% VC, 0.5% malic acid or 0.5% citric acid. The pH of each solution was measured using a pH meter and the plate count analysis was carried out at different time points of incubation.

[3] = pH of rehydrated PIF after addition of natural extract (pH meter); type: physicochemical; settings: 5 mg/mL added to rehydrated PIF (initial pH 6.82)
Protocol: as §1

pH of rehydrated PIF after addition [3] | Compound | antibacterial/inhibitory effect after acidification compared with before [1] | growth trend of C. sakazakii (plate count) [2] | antibacterial effect in PIF [2]
4.55 | O=C1O[C@H]([C@@H](O)CO)C(O)=C1O [VC, ascorbic acid] | stronger antibacterial activity than before the treatment | slower growth trend | not obvious
3.55 | O=C(O)CC(O)(CC(=O)O)C(=O)O [citric acid] | not significantly different; also recorded: not significant | downward trend | some antibacterial effect
3.62 | O=C(O)CC(O)C(=O)O (centres unmarked) [malic acid] | – | did not change much | not obvious
